Measurements taken from patent publication US10905120B2, “ABA receptor agonists that modulate transpiration” (The Regents of the University of California, priority 2016, dated 2021).
Values after ≈ are worked out from the molar mass of the structure shown. Where two headings read alike, the source gives them in different places.

How the values were obtained:
PYL2 = molecular target: T1, PYL2 (Arabidopsis thaliana, UniProt O80992); assay: PP2C inhibition assay, recombinant PYL2 receptor; format: biochemical
T1 sequence (O80992 1-190): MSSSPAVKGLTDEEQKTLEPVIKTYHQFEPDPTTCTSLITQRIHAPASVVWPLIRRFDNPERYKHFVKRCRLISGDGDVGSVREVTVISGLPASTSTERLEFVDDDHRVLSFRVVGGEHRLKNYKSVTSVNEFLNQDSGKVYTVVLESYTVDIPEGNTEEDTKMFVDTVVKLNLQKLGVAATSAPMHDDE
T1 sequence (Q9CAJ0 23-511 partner): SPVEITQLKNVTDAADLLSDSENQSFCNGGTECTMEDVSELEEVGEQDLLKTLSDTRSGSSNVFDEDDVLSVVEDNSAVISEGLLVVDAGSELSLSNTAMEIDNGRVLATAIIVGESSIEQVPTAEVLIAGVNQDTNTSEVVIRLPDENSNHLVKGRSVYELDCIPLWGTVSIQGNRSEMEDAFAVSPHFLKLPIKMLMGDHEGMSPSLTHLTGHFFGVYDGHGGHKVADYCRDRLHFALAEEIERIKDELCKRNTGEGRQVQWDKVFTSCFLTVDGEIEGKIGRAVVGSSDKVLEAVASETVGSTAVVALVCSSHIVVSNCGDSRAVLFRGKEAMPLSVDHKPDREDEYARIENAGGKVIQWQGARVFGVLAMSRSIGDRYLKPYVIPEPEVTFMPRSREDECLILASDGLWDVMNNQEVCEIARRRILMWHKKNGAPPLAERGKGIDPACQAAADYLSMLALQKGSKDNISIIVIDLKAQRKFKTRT
Method: (§1) Reactions were started by adding 40 μL of a reaction solution containing 25 mM 4-nitrophenyl phosphate in assay buffer, after which absorbance measurements were immediately collected using a 405 nm on Wallac plate reader. Reactions contained 100 nM PP2C and 200 nM PYR/PYL proteins. […] The dose response data was fitted to a log (inhibitor) vs response-(variable slope) model using non-linear regression to infer the IC50 values using Graph Pad Prism 6.0.

PYR1 = molecular target: T2, PYR1 (Arabidopsis thaliana, UniProt O49686); assay: PP2C inhibition assay, recombinant PYR1 receptor; format: biochemical
T2 sequence (O49686 1-191): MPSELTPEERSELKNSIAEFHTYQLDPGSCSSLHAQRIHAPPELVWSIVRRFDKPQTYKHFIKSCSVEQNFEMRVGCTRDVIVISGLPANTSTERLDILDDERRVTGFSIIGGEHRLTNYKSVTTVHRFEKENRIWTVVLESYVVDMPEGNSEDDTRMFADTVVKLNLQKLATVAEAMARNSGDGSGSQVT
T2 sequence (Q9CAJ0 23-511 partner): T1 sequence (Q9CAJ0 23-511 partner)
Method: as §1

[1] = tested on: Arabidopsis thaliana seeds; assay: Germination assay; format: in vivo; settings: Minimal Inhibitory Concentration, 3 d in darkness after 4 d stratification
Method: Germination experiments were performed with Arabidopsis thaliana seeds of wildtype Col0, Ler, or mutant backgrounds.
Seeds were sterilized by 30 sec incubation in 70% ethanol solution followed by a 5 min […] (while vigorously shaking) in a bleach-Tween solution. Afterwards, the sterilizing solutions were removed, and five washes were performed with sterile distilled water. To enhance complete removal of the solutions between the different steps, short centrifuge spins were performed. Finally, the now surface-sterilized seeds were re-suspended in an aseptic 0.1% agar solution to simplify distribution over multiwall plates. One drop of the solution contained on average 20-30 seeds.
In the multiwell plates, seeds were plated onto 0.7% agar Murashige amd Skoog (MS) plant growth medium containing one-half MS salts and 0.5% sucrose containing different concentrations of ABA, quinabactin, or the compound of interest. After 4 d of stratification at 4° C., the plates were transferred to a growth chamber in darkness and allowed to germinate for 3 d before germination was evaluated. The results are shown above in Table 1 and FIGS. 3A and 3B.

[2] = recombinant receptor 200 nM, PP2C 100 nM, 4-nitrophenyl phosphate substrate, absorbance 405 nm, read-out: IC50 PYL2
[3] = recombinant receptor 200 nM, PP2C 100 nM, 4-nitrophenyl phosphate substrate, absorbance 405 nm, read-out: IC50 PYR1

| SMILES | IC50 (PYL2; [2]) [µM] | IC50 (PYR1; [3]) [µM] | MIC (μM) Germination [1] [µM] | IC50 (PYL2) [µM] | IC50 (PYR1) [µM] |
| --- | --- | --- | --- | --- | --- |
| Cc1ccc(CS(=O)(=O)Nc2ccc(C#N)c(Br)c2)cc1 [Ligand Q3, N-(3-Bromo-4-cyanophenyl)-1-(4-methylphenyl)methanesulfonamide] | > 50 | 2.5 ± 0.151 | >25 | – | – |
| Cc1ccc(CS(=O)(=O)Nc2cc(C)c(C#N)c(C3CC3)c2)cc1 [Ligand Q28, N-(4-Cyano-3-cyclopropyl-5-methylphenyl)-1-(4-methylphenyl) methanesulfonamide] | 1.66 ± 0.046 | 0.21 ± 0.036 | 10 (≈ 3.4 µg/mL) | – | – |
| Cc1cc(NS(=O)(=O)Cc2ccc(Br)cc2F)cc(C)c1C#N [Ligand Q24, 1-(4-Bromo-2-fluorophenyl)-N-(4-cyano-3,5-dimethylphenyl)methanesulfonamide] | – | – | 10 (≈ 3.97 µg/mL) | 11.9 ± 1.47 | 0.188 ± 0.019 |
| CCCN(C(C)=O)c1ccc(NS(=O)(=O)Cc2ccc(C)cc2)cc1C(F)(F)F [Ligand Q11, N-[4-{[(4-Methylbenzyl)sulfonyl]amino}-2-(trifluoromethyl)phenyl]-N-propylacetamide] | > 50 | > 50 | >25 | – | – |
| CC(=O)Nc1ccc(NS(=O)(=O)Cc2ccc(C)cc2)cc1C(F)(F)F [Ligand Q10, N-[4-{[(4-Methylbenzyl)sulfonyl]amino}-2-(trifluoromethyl)phenyl]acetamide] | > 50 | > 50 | >25 | – | – |
| Cc1ccc(CS(=O)(=O)Nc2ccc(C#N)c(Cl)c2)cc1 [Ligand Q2, N-(3-Chloro-4-cyanophenyl)-1-(4-methylphenyl)methanesulfonamide] | – | – | 25 (≈ 8.02 µg/mL) | > 50 | 3.91 ± 0.122 |
| Cc1ccc(CS(=O)(=O)Nc2ccc(C#N)c(C(F)(F)F)c2)cc1 [Ligand Q4, N-(4-Cyano-3-(trifluoromethyl)-phenyl)-1-(4-methylphenyl)methanesulfonamide] | – | – | 10 (≈ 3.54 µg/mL) | 9.58 ± 0.102 | 0.258 ± 0.019 |
| Cc1ccc(CS(=O)(=O)Nc2cc(C)c(C#N)c(C)c2)cc1 [Ligand Q15, N-(4-Cyano-3,5-dimethylphenyl)-1-(4-methylphenyl)methanesulfonamide] | 2.58 ± 0.222 | 0.098 ± 0.007 | 10 (≈ 3.14 µg/mL) | – | – |
| Cc1cc(NS(=O)(=O)Cc2ccc(Cl)cc2)cc(C)c1C#N [Ligand Q22, 1-(4-Chlorophenyl)-N-(4-cyano-3,5-dimethylphenyl)methanesulfonamide] | 5.63 ± 0.8 | 0.197 ± 0.009 | 10 (≈ 3.35 µg/mL) | – | – |
| Cc1cc(NS(=O)(=O)Cc2ccc(C3CC3)cc2)cc(C)c1C#N [Ligand Q23, N-(4-Cyano-3,5-dimethylphenyl)-1-(4-cyclopropylphenyl)methanesulfonamide] | 20.1 ± 1.46 | 0.203 ± 0.025 | 10 (≈ 3.4 µg/mL) | – | – |
| N#Cc1ccc(NS(=O)(=O)Cc2ccc(Br)cc2)cc1C(F)(F)F [Ligand Q7, 1-(4-Bromophenyl)-N-[4-cyano-3-(trifluoromethyl)phenyl]methanesulfonamide] | – | – | 10 (≈ 4.19 µg/mL) | 31.4 ± 3.4 | 0.326 ± 0.0077 |
| Cc1cc(NS(=O)(=O)Cc2ccc(C(F)(F)F)cc2)ccc1C#N [Ligand Q13, N-(4-Cyano-3-methylphenyl)-1-[4-(trifluoromethyl)phenyl]methanesulfonamide] | > 50 | 1.1 ± 0.183 | >25 | – | – |
| N#Cc1ccc(NS(=O)(=O)Cc2ccc(C(F)(F)F)cc2)cc1C(F)(F)F [Ligand Q9, N-[4-Cyano-3-(trifluoromethyl)phenyl]-1-[4-(trifluoromethyl)phenyl]methanesulfonamide] | – | – | 10 (≈ 4.08 µg/mL) | > 50 | 3.4 ± 0.27 |
| Cc1ccc(CS(=O)(=O)Nc2cc(C(F)(F)F)c(C#N)cc2N)cc1 [Ligand Q18, N-[2-Amino-4-cyano-5-(trifluoromethyl)phenyl]-1-(4-methylphenyl) methanesulfonamide] | > 50 | > 50 | >25 | – | – |
| N#Cc1ccc(NS(=O)(=O)Cc2ccc(N)cc2)cc1C(F)(F)F [Ligand Q6, 1-(4-Aminophenyl)-N-[4-cyano-3-(trifluoromethyl)phenyl]methanesulfonamide] | – | – | >25 | > 50 | 3.4 ± 0.2 |
| Cc1ccc(CS(=O)(=O)Nc2cc(C(F)(F)F)c(C#N)c(C(F)(F)F)c2)cc1 [Ligand Q14, N-(4-Cyano-3,5-(bistrifluoromethyl)phenyl)-1-(4-methylphenyl) methanesulfonamide] | > 50 | > 50 | >25 | – | – |
| Cc1ccc(CS(=O)(=O)Nc2cc(C(F)(F)F)c(C#N)cc2[N+](=O)[O-])cc1 [Ligand Q17, N-[4-Cyano-2-nitro-5-(trifluoromethyl)phenyl]-1-(4-methylphenyl) methanesulfonamide] | > 50 | > 50 | >25 | – | – |
| Cc1ccc(CS(=O)(=O)Nc2ccc(C#N)c(C)c2)cc1 [Ligand Q1, N-(4-Cyano-3-methylphenyl)-1-(4-methylphenyl)methanesulfonamide] | 20 ± 1.08 | 0.246 ± 0.06 | 10 (≈ 3 µg/mL) | – | – |
| COc1cc(NS(=O)(=O)Cc2ccc(C)cc2)ccc1C#N [Ligand Q20, N-(4-Cyano-3-methoxyphenyl)-1-(4-methylphenyl)methanesulfonamide] | 11.8 ± 1.12 | 0.13 ± 0.009 | 5 (≈ 1.58 µg/mL) | – | – |
| Cc1ccc(CS(=O)(=O)Nc2cc(C)c(C#N)c(Br)c2)cc1 [Ligand Q25, N-(3-Bromo-4-cyano-5-methylphenyl)-1-(4-methylphenyl)methanesulfonamide] | 16.7 ± 0.788 | 0.355 ± 0.034 | 25 (≈ 9.48 µg/mL) | – | – |
| CCCN1C(=O)CCc2cc(NS(=O)(=O)Cc3ccc(C)cc3)ccc21 [QB, Quinabactin, reference compound] | – | – | 3 (≈ 1.12 µg/mL) | – | – |
| N#Cc1ccc(NS(=O)(=O)Cc2ccc([N+](=O)[O-])cc2)cc1C(F)(F)F [Ligand Q5, N-[4-Cyano-3-(trifluoromethyl)phenyl]-1-(4-nitrophenyl)methanesulfonamide] | – | – | >25 | > 50 | 8.24 ± 0.52 |
